According to ChEMBL document CHEMBL3046729, “Design, synthesis, and cytotoxic activities of new 2,4,5-triarylimidazoles” (Med Chem Res, 2013):
pIC50: −log10 of the molar value.

What was measured:
MDA-MB-231 = assay: Cytotoxicity against Homo sapiens (human) MDA-MB-231 cells assessed as inhibition of cell proliferation after 72 hr by MTT assay; type: functional, cell-based; conditions: MDA-MB-231, 72 h
T47D = assay: Cytotoxicity against Homo sapiens (human) T47D cells assessed as inhibition of cell proliferation after 72 hr by MTT assay; type: functional, cell-based
MCF7 = assay: Cytotoxicity against Homo sapiens (human) MCF7 cells assessed as inhibition of cell proliferation after 72 hr by MTT assay; type: functional, cell-based; conditions: MCF7, 72 h
MCF7 (Homo sapiens) = assay: Cytotoxicity against Homo sapiens (human) MCF7 cells assessed as inhibition of cell proliferation after 72 hr by MTT assay; conditions: MCF7, 72 h

SMILES | pIC50 (MDA-MB-231) | pIC50 (T47D) | pIC50 (MCF7) | pIC50 (MCF7 (Homo sapiens))
COc1ccc(-c2nc(-c3ccc(OCCN(C)C)cc3)c(-c3ccccc3)[nH]2)cc1 | 4.38 | 4.55 |  | 
COc1ccc(-c2nc(-c3ccc(OCCN4CCCCC4)cc3)c(-c3ccccc3)[nH]2)cc1 | 4.19 | 4.27 | 4.15 | 
c1ccc(-c2nc(-c3ccc(OCCN4CCCCC4)cc3)c(-c3ccccc3)[nH]2)cc1 | > 7.00 | > 7.00 | > 7.00 | 
CN(C)CCOc1ccc(-c2nc(-c3ccc(F)cc3)[nH]c2-c2ccccc2)cc1 |  | 4.21 |  | 4.09
CN(C)CCOc1ccc(-c2nc(-c3ccc(O)cc3)[nH]c2-c2ccccc2)cc1 | 4.15 | 4.20 | 4.09 | 
Oc1ccc(-c2nc(-c3ccc(OCCN4CCCCC4)cc3)c(-c3ccccc3)[nH]2)cc1 | > 7.00 | > 7.00 | > 7.00 | 
CC/C(=C(\c1ccccc1)c1ccc(OCCN(C)C)cc1)c1ccccc1 [TAMOXIFEN] | 4.60 | 4.92 | 4.26 | 
Fc1ccc(-c2nc(-c3ccc(OCCN4CCCCC4)cc3)c(-c3ccccc3)[nH]2)cc1 | 4.11 | 4.21 | < 4.00 | 
CN(C)CCOc1ccc(-c2nc(-c3ccccc3)[nH]c2-c2ccccc2)cc1 | 4.28 | 4.30 |  | 
